# US20120165403A1, “METHODS OF INHIBITING THE ACTIVITY OF HSP90 AND/OR ARYL HYDROCARBON RECEPTOR” (UNIVERSITY OF ROCHESTER, priority 2004, published 2012)
# Target: T1, XAP2 (Mus musculus, UniProt O08915)
# T1 construct: His tag; made in house; host or cells: TNT rabbit reticulocyte lysate; partly purified on TALON cobalt resin
# T1 sequence (O08915 1-330): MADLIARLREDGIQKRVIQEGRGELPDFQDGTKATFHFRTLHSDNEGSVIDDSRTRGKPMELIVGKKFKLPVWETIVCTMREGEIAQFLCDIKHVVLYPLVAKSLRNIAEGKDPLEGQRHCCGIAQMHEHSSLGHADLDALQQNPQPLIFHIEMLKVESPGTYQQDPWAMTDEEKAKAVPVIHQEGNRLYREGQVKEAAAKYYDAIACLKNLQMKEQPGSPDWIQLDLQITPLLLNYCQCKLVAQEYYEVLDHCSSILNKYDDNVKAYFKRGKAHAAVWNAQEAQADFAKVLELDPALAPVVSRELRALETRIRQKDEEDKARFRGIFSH
# Experiment: Affinity chromatography on EGCG-conjugated Sepharose, XAP2
# Type: binding
# Excerpt: Murine AhR and ARNT cDNA (obtained from J. Whitlock and O. Hankinson, respectively) were inserted into pcDNA3 (Invitrogen, Carlsbad, Calif.). Chicken hsp90 constructs (FIG. 5), c90711hsp (wild-type), c90G94D (wild-type point mutant gly94→Asp (Grenert et al., J. Biol. Chem. 272:23843-23850 (1997), which is hereby incorporated by reference in its entirety), c90D92A (wild-type point mutant Asp92→Ala (Sullivan et al., J. Biol. Chem. 268:20373-20379 (1993), which is hereby incorporated by reference in its entirety), c90N221 (wild-type truncation mutant encoding a.a. 221-728 (Sullivan et al., J. Biol. Chem. 268:20373-20379 (1993), which is hereby incorporated by reference in its entirety)), c90N303 (a.a. 303-728) and c90N538 (a.a. 538-728) were kind gifts from Dr. D. Toft (Rochester, Minn.). The C-terminal truncation mutant c900507 (a.a. 1-221) was obtained from Dr. L. Neckers (Rockville, Md.) (Grenert et al., J. Biol. Chem. 272:23843-23850 (1997); Marcu et al., J. Biol. Chem. 275:37181-37186 (2000), which are hereby incorporated by reference in their entirety). Human p23 cDNA was excised from pQE80-p23 (obtained from W. Chan Stockton, Calif.) by sequential digests using the restriction enzymes Sad (3′-end) and BamHI (5′-end) and inserted into the similarly digested pET28a (Novagen, Madison, Wis.). The mouse histidine-tagged XAP2 construct, pET-AIP (Bell et al., J. Biol. Chem. 275:36407-36414 (2000), which is hereby incorporated by reference in its entirety), was a kind gift from Dr. D. Bell (Nottingham, UK). All constructs are in the T7 orientation with the exception of c900507, which is driven by an SP6 promoter.
# AhR, ARNT, hsp90 (wild-type, point mutants, and truncation mutants), p23, and XAP2 were generated (separately) by coupled transcription/translation in rabbit reticulocyte lysate (RRL) using the TNT® system according to the manufacturer's protocol (Promega, Madison Wis.). In this system, ^35S-methionine was included in the transcription/translation mix to generate ^35S-labeled protein.
# Immobilized Metal Affinity Chromatography (IMAC) Purification of Histidine-Tagged XAP2. The TALON IMAC method was used for purification of XAP2 from RRL following a modified protocol (Clonetech). A 500 μL (50% slurry) of cobalt resin was washed at room temperature three times with TALON buffer (50 mM Na2PO4, 300 mM NaCl, pH 7.0) according to the manufacturer's protocol. A 175 μL aliquot of undiluted ^35S-XAP2 in RRL was added to a 15 ml conical tube containing the washed resin in TALON buffer for 20 minutes at room temperature end-over-end. […] Each aliquot was collected separately and analyzed for the presence of ^35S-XAP2 by SDS-PAGE followed by Phosphorimaging (PSI; Molecular Dynamics, Sunnyvale, Calif.). […]
compound,measurement,setting,value
"O=C(O[C@@H]1Cc2c(O)cc(O)cc2O[C@@H]1c1cc(O)c(O)c(O)c1)c1cc(O)c(O)c(O)c1 [EGCG, epigallocatechin gallate]",binding of XAP2 to EGCG-Sepharose,35S-XAP2 in RRL,eluted from EGCG-Sepharose
same,binding of XAP2 to EGCG-Sepharose,Hepa cytosol,also eluted from EGCG-Sepharose
same,binding of purified XAP2 to immobilized EGCG,"His-purified XAP2, devoid of detectable hsp90",not specifically eluted from immobilized EGCG
same,binding of purified XAP2 after reconstitution,His-purified XAP2 with purified hsp90 or RRL,restores XAP2 elution
